The results in this text go back to PubChem BioAssay (NCI).

Several values for one entry are separate records, joined by “and”; a condition that tells them apart may be missing. Equal values may be shown once.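 Assay format: 96-well plates, 48-hour exposure. GI50 marks 50% less growth. TGI is the concentration that stops growth completely.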

Some test systems named below: SK-MEL-5 melanoma; CCRF-CEM leukemia; COLO 205 colon; NCI-H23 lung; BT-549 breast; CAKI-1 renal; HL-60(TB) leukemia; HCT-15 colon; RXF 393 renal; NCI-H522 lung.
Common to all, as to assay: NCI tumour cell line growth inhibition, 48 h

Turning to `CS(=O)(=O)c1ccc(Nc2nc(N[C@H]3CCCC[C@H]3N)nc3cc[nH]c(=O)c23)cc1`, the GI50 was 1.53 µM in the test with SK-MEL-5 melanoma; 1.24 µM in the test on CCRF-CEM leukemia; 0.865 µM in the test with COLO 205 colon; 1.58 µM in the test with NCI-H23 lung; 1.63 µM in the test with BT-549 breast; 11.7 µM in the test with CAKI-1 renal. Besides, the GI50 in the test with HL-60(TB) leukemia is 0.533 µM; with HCT-15 colon, 26.7 µM; in the test with RXF 393 renal, 1.03 µM; in the test with NCI-H522 lung, 0.268 µM. The TGI was 3.25 µM in the test with SK-MEL-5 melanoma; above 100 µM in the test with CCRF-CEM leukemia; 2.35 µM in the test with COLO 205 colon; 6.01 µM in the test on NCI-H23 lung; 5.51 µM with BT-549 breast; 36.3 µM in the test on CAKI-1 renal. Besides, the TGI is 6.6 µM with HL-60(TB) leukemia, above 100 µM in the test with HCT-15 colon, 3.04 µM in the test with RXF 393 renal and 1.72 µM with NCI-H522 lung.
Turning to `COc1ccc(-c2nc(-c3nc4ccc(C)cc4[nH]3)cc3c2[nH]c2ccccc23)cc1`, the GI50 in the test on SK-MEL-5 melanoma was 3.12 µM; in the test with CCRF-CEM leukemia, 2.94 µM; in the test on COLO 205 colon, 2.83 µM; in the test with NCI-H23 lung, 5.36 µM; in the test on BT-549 breast it was 6.88 µM; with CAKI-1 renal it was 3.28 µM. Besides, the GI50 with HL-60(TB) leukemia is 4.11 µM; in the test on HCT-15 colon it was 3.2 µM; in the test with RXF 393 renal, 3.82 µM; with NCI-H522 lung it was 4.39 µM. Moreover, the TGI in the test with SK-MEL-5 melanoma is 12.6 µM; in the test with CCRF-CEM leukemia it was 18.7 µM; with COLO 205 colon it was 8.21 µM; with NCI-H23 lung it was above 100 µM; in the test with BT-549 breast it was above 100 µM; in the test with CAKI-1 renal, above 100 µM. Moreover, the TGI was 37.7 µM with HL-60(TB) leukemia, above 100 µM in the test on HCT-15 colon, above 100 µM in the test on RXF 393 renal and 42.1 µM in the test with NCI-H522 lung.
Consider `O=C1CSC(c2ccccc2Cl)N1c1nnc(Cn2cnnc2)o1` (stereo unspecified), for which the GI50 in the test on SK-MEL-5 melanoma was 7.81 µM; in the test with CCRF-CEM leukemia, 5.83 µM; in the test on COLO 205 colon it was 10.5 µM; in the test with NCI-H23 lung, 16.4 µM; in the test with BT-549 breast, 6.31 µM; in the test on CAKI-1 renal it was 11.4 µM. For the same compound, the GI50 in the test on HL-60(TB) leukemia is 2.69 µM; with HCT-15 colon, 4.47 µM; with RXF 393 renal, 24.3 µM; in the test with NCI-H522 lung, 10.4 µM. The TGI is 21.2 µM in the test with SK-MEL-5 melanoma; above 100 µM in the test on CCRF-CEM leukemia; 23.2 µM with COLO 205 colon; above 100 µM with NCI-H23 lung; 32.5 µM in the test with BT-549 breast; above 100 µM in the test with CAKI-1 renal. The TGI in the test with HL-60(TB) leukemia is 8.67 µM; with HCT-15 colon it was 18.2 µM; in the test with RXF 393 renal, 79.4 µM; in the test on NCI-H522 lung, 38 µM.
In the case of `CCCc1cc(=O)n2c(C(=O)Nc3ccc(F)cc3)c(C(=O)Nc3ccc(F)cc3)sc2n1`, the GI50 was above 160 µM with SK-MEL-5 melanoma; above 160 µM in the test on CCRF-CEM leukemia; 160 µM in the test on COLO 205 colon; above 160 µM in the test on NCI-H23 lung; above 160 µM in the test on BT-549 breast; 75.3 µM in the test with CAKI-1 renal. The GI50 in the test with HL-60(TB) leukemia is above 160 µM; in the test with HCT-15 colon, 89.7 µM; in the test on RXF 393 renal it was 4.41 µM; in the test with NCI-H522 lung, 73.3 µM. For the same compound, the TGI in the test on SK-MEL-5 melanoma, with CCRF-CEM leukemia, with COLO 205 colon, in the test on NCI-H23 lung, in the test with BT-549 breast and with CAKI-1 renal was above 160 µM each time. Further, the TGI in the test with HL-60(TB) leukemia was above 160 µM; in the test with HCT-15 colon, above 160 µM; in the test on RXF 393 renal, 13 µM; in the test on NCI-H522 lung it was above 160 µM.
As to `Cn1cc(C2=C(c3c[nH]c4ccccc34)C(=O)NC2=O)c2ccccc21`, the GI50 in the test with SK-MEL-5 melanoma is 0.859 µM; with CCRF-CEM leukemia it was 0.264 µM; in the test on COLO 205 colon, 1.25 µM; in the test with NCI-H23 lung it was 0.218 µM; with BT-549 breast it was 0.314 µM; in the test with CAKI-1 renal it was 0.523 µM. Further, the GI50 is 0.871 µM with HL-60(TB) leukemia, 1.12 µM in the test with HCT-15 colon, 0.198 µM in the test with RXF 393 renal and 2.11 µM in the test on NCI-H522 lung. Moreover, the TGI was 3.1 µM with SK-MEL-5 melanoma; above 25 µM with COLO 205 colon; above 25 µM in the test on NCI-H23 lung; above 7.28 µM in the test with BT-549 breast; above 25 µM in the test on CAKI-1 renal; 6.35 µM in the test on HL-60(TB) leukemia. Further, the TGI in the test on HCT-15 colon is above 25 µM; in the test on RXF 393 renal it was 1.96 µM; with NCI-H522 lung, above 25 µM.
For the compound `CCCCCC(O)C(O)CCC[C@H](O)[C@H]1CC[C@H]([C@H]2CC[C@H]([C@H](O)CCCCCCCCCCCCC3=C[C@H](C)OC3=O)O2)O1` (stereo partly specified), the TGI with SK-MEL-5 melanoma is 3.82 µM and 3.07 µM; in the test on CCRF-CEM leukemia it was 8.35 µM; in the test with COLO 205 colon, 14.2 µM; in the test with NCI-H23 lung, 23.3 µM; in the test with BT-549 breast it was 2.79 µM and 25.5 µM; in the test with CAKI-1 renal, 36.5 µM. The TGI in the test with HL-60(TB) leukemia turned out to be 4.28 µM; in the test on HCT-15 colon it was 40.6 µM; in the test with RXF 393 renal it was 30.9 µM; with NCI-H522 lung it was 23.9 µM. Besides, the GI50 in the test with CAKI-1 renal is 15.3 µM; with HCT-15 colon it was 5.48 µM; in the test on RXF 393 renal it was 11.1 µM.
Take `O=C(NCC(F)(F)F)Nc1cccc(-c2cnc3cc(-c4ccc(F)cc4)ccn23)c1`: the GI50 in the test on SK-MEL-5 melanoma is 0.549 µM; in the test on CCRF-CEM leukemia, 1.25 µM; in the test with COLO 205 colon, 0.531 µM; with NCI-H23 lung, 1.65 µM; in the test on BT-549 breast, 1.31 µM; in the test with CAKI-1 renal, 1.05 µM. The GI50 in the test on HL-60(TB) leukemia was 0.58 µM; in the test with HCT-15 colon, 0.614 µM; with RXF 393 renal it was 1.13 µM; with NCI-H522 lung, 0.225 µM. The TGI in the test with SK-MEL-5 melanoma is 14 µM; in the test with CCRF-CEM leukemia, above 82.7 µM; in the test with COLO 205 colon it was above 26.7 µM; with NCI-H23 lung, 20.8 µM; in the test with BT-549 breast, above 61 µM; in the test on HL-60(TB) leukemia, 24.7 µM. Further, the TGI in the test with HCT-15 colon was above 74 µM; in the test with RXF 393 renal, 6.36 µM; in the test on NCI-H522 lung it was 0.962 µM.
